Measured values taken from patent publication US8420675B2, “Aminotetrahydroindazoloacetic acids” (Hoffmann-La Roche Inc., priority 2008, dated 2013).

Target: T1, human CRTH2 (Homo sapiens, UniProt Q9Y5Y4)
T1 construct: expressed in transfected cells
T1 sequence (Q9Y5Y4 1-395): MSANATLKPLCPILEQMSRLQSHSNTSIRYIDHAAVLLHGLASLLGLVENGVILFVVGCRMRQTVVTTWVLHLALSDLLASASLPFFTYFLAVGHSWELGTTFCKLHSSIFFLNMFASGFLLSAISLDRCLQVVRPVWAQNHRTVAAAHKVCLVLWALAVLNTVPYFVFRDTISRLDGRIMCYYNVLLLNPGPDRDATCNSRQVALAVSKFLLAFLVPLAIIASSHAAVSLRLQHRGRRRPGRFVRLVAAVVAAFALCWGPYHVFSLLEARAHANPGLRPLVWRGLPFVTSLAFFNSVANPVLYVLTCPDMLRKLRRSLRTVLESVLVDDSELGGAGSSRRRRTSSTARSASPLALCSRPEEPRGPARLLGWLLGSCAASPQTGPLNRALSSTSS
Assay: Human CRTH2 Receptor Binding Assay (whole cell, [3H]ramatroban competition)
Details: CHO-K1 cells expressing human CRTH2 and G-alpha16; 20 nM [3H]ramatroban; 1 hour, room temperature
Excerpt: A whole cell receptor binding assay using [^3H]ramatroban as the competing radioactive ligand was employed to evaluate the compound binding activity to human CRTH2. The radioactive ligand [^3H]ramatroban was synthesized according to Sugimoto et. al. (Eur. J. Pharmacol. 524, 30-37, 2005) to a specific activity of 42 Ci/mmol.
A cell line stably expressing human CRTH2 was established by transfecting CHO-K1 cells with two mammalian expression vectors that harbored human CRTH2 and G-alpha16 cDNAs, respectively, using FuGene® 6 transfection reagent (from Roche). Stable clones expressing CRTH2 were selected by staining each clone with BM16 (BD Pharmingen™ from BD Biosciences, a division of Becton, Dickinson and Company), which is a rat monoclonal antibody to human CRTH2. The cells were maintained as monolayer cultures in Ham's F-12 medium containing 10% fetal bovine serum, 100 units/mL penicillin, 100 μg/mL streptomycin, 2 mM glutamine, 0.5 mg/mL G418 (geneticin) for CRTH2, and 0.2 mg/mL hygromycin-B (for G-alpha 16). For whole cell receptor binding assay, the monolayer cells were rinsed once with PBS (phosphate buffered saline), dissociated using ethylenediaminetetraacetate (Versene™ EDTA Lonza Inc.), and suspended in PBS containing 10 mM MgCl2 and 0.06% BSA (bovine serum albumin) at 1.5×10^6 cells/mL.
The binding reactions (0.2 mL) were performed in 96-well plates at room temperature in PBS containing 1.5×10^5 cells, 10 mM MgCl2, 0.06% BSA, 20 nM [^3H]ramatroban, and test compound at various concentrations. After 1 hour of binding reactions, the cells were harvested on GF™/B filter microplates (microtiter plates with embedded glass fiber from PerkinElmer, Inc.) and washed 5 times with PBS using a Filtermate™ Harvester (a cell harvester that harvests and washes cells from microplates from PerkinElmer, Inc.). The radioactivities bound to the cells were determined using a microplate scintillation counter (TopCount® NXT, from PerkinElmer, Inc.) after adding 50 μL of Microscint™ 20 scintillation fluid (from PerkinElmer, Inc.) to each well of the filter plates. The radioactivity from non-specific binding was determined by replacing compound with 10 μM of 15(R)-15-methyl PGD2 (from Cayman Chemical Company) in the reaction mixtures. The radioactivity bound to the cells in the absence of compound (total binding) was determined by replacing compound with 0.25% of DMSO (dimethyl sulfoxide) in the reaction mixture. Specific binding data were obtained by subtracting the radioactivity of non-specific binding from each binding data.
The IC50 value is defined as the concentration of the tested compound that is required for 50% inhibition of total specific binding. In order to calculate the IC50 value, the percent inhibition data were determined for 7 concentrations for each compound. The percent inhibition for a compound at each concentration was calculated according to the following formula, [1-(specific binding in the presence of compound)/(total specific binding)]x100. The IC50 value was then obtained by fitting the percent inhibition data to a sigmoidal dose-response (4 parameter logistic) model in the XLfit® software Excel add-in program [from ID Business Solutions Ltd., model 205, where F(x)=(A+(B−A)/(1+((C/x)^D)))].

SMILES | IC50
CN([C@@H]1CCCc2c1cnn2CC(=O)O)S(=O)(=O)c1ccc(Oc2ccc(Cl)cc2)c(F)c1 [Example 9-12a, ((R)-4-{[4-(4-Chloro-phenoxy)-3-fluoro-benzenesulfonyl]-methyl-amino}-4,5,6,7-tetrahydro-indazol-1-yl)-acetic acid] | 7.4 nM
CN([C@@H]1CCCc2c1cnn2CC(=O)O)S(=O)(=O)c1cnc(Oc2ccccc2Cl)c(Br)c1 [Example 6-2a, ((R)-4-{[5-Bromo-6-(2-chloro-phenoxy)-pyridine-3-sulfonyl]-methyl-amino}-4,5,6,7-tetrahydro-indazol-1-yl)-acetic acid] | 6.6 nM
O=C(O)Cn1ncc2c1CCCC2NS(=O)(=O)c1ccc(-c2ccc(F)cc2)cc1 (stereo not shown) [Example 10-7a, [4-(4′-Fluoro-biphenyl-4-sulfonylamino)-4,5,6,7-tetrahydro-indazol-1-yl]-acetic acid] | 300 nM
O=C(O)Cn1ncc2c1CCC[C@H]2NS(=O)(=O)c1ccc(Oc2ccccc2Cl)cc1 [Example 1-1a, {(R)-4-[4-(2-Chloro-phenoxy)-benzenesulfonylamino]-4,5,6,7-tetrahydro-indazol-1-yl}-acetic acid] | 27.7 nM
CC(=O)c1cccc(-c2ccc(S(=O)(=O)NC3CCCc4c3cnn4CC(=O)O)cc2)c1 (stereo not shown) [Example 10-22a, [4-(3′-Acetyl-biphenyl-4-sulfonylamino)-4,5,6,7-tetrahydro-indazol-1-yl]-acetic acid] | 152 nM
CN([C@@H]1CCCc2c1cnn2CC(=O)O)S(=O)(=O)c1ccc(Oc2ccc(Br)cc2)c(Cl)c1 [Example 9-23a, ((R)-4-{[4-(4-Bromo-phenoxy)-3-chloro-benzenesulfonyl]-methyl-amino}-4,5,6,7-tetrahydro-indazol-1-yl)-acetic acid] | 6.7 nM
O=C(O)Cn1ncc2c1CCCC2NS(=O)(=O)c1ccc(-c2cccnc2)cc1 (stereo not shown) [Example 10-2a, [4-(4-Pyridin-3-yl-benzenesulfonylamino)-4,5,6,7-tetrahydro-indazol-1-yl]-acetic acid] | 371 nM
CN([C@@H]1CCCc2c1cnn2CC(=O)O)S(=O)(=O)c1ccc(Oc2ccc(F)cc2)c(Br)c1 [Example 9-40a, ((R)-4-{[3-Bromo-4-(4-fluoro-phenoxy)-benzenesulfonyl]-methyl-amino}-4,5,6,7-tetrahydro-indazol-1-yl)-acetic acid] | 7.9 nM
O=C(O)Cn1ncc2c1CCCC2NS(=O)(=O)c1ccc(Oc2ccc(Cl)cc2)cc1 (stereo not shown) [Example 5-3a, {4-[4-(4-Chloro-phenoxy)-benzenesulfonylamino]-4,5,6,7-tetrahydro-indazol-1-yl}-acetic acid] | 60.6 nM
O=C(O)Cn1ncc2c1CCCC2NS(=O)(=O)c1ccc(-c2ccccc2C(F)(F)F)cc1 (stereo not shown) [Example 10-17a, [4-(2′-Trifluoromethyl-biphenyl-4-sulfonylamino)-4,5,6,7-tetrahydro-indazol-1-yl]-acetic acid] | 262 nM
CN([C@@H]1CCCc2c1cnn2CC(=O)O)S(=O)(=O)c1ccc(Oc2ccc(S(C)(=O)=O)cc2)c(Cl)c1 [Example 9-25a, ((R)-4-{[3-Chloro-4-(4-methanesulfonyl-phenoxy)-benzenesulfonyl]-methyl-amino}-4,5,6,7-tetrahydro-indazol-1-yl)-acetic acid] | 20.9 nM
N#Cc1ccc(Oc2ncc(S(=O)(=O)NC3CCCc4c3cnn4CC(=O)O)cc2Br)cc1 (stereo not shown) [Example 2-4a, {4-[5-Bromo-6-(4-cyano-phenoxy)-pyridine-3-sulfonylamino]-4,5,6,7-tetrahydro-indazol-1-yl}-acetic acid] | 10.3 nM
CN([C@@H]1CCCc2c1cnn2CC(=O)O)S(=O)(=O)c1cnc(Oc2cccc(Cl)c2)c(Br)c1 [Example 6-8a, ((R)-4-{[5-Bromo-6-(3-chloro-phenoxy)-pyridine-3-sulfonyl]-methyl-amino}-4,5,6,7-tetrahydro-indazol-1-yl)-acetic acid] | 11.9 nM
O=C(O)Cn1ncc2c1CCCC2NS(=O)(=O)c1ccc(-c2ccccc2Cl)cc1 (stereo not shown) [Example 10-4a, [4-(2′-Chloro-biphenyl-4-sulfonylamino)-4,5,6,7-tetrahydro-indazol-1-yl]-acetic acid] | 257 nM
CN([C@@H]1CCCc2c1cnn2CC(=O)O)S(=O)(=O)c1ccc(Oc2ccccc2Cl)cc1Cl [Example 9-10a, ((R)-4-{[2-Chloro-4-(2-chloro-phenoxy)-benzenesulfonyl]-methyl-amino}-4,5,6,7-tetrahydro-indazol-1-yl)-acetic acid] | 97.2 nM
Cc1ccc(Oc2ccc(S(=O)(=O)N(C)[C@@H]3CCCc4c3cnn4CC(=O)O)cc2Cl)cc1 [Example 9-15a, {(R)-4-[(3-Chloro-4-p-tolyloxy-benzenesulfonyl)-methyl-amino]-4,5,6,7-tetrahydro-indazol-1-yl}-acetic acid] | 10.3 nM
COc1cc(F)ccc1Oc1ccc(S(=O)(=O)N(C)[C@@H]2CCCc3c2cnn3CC(=O)O)cc1Cl [Example 9-17a, ((R)-4-{[3-Chloro-4-(4-fluoro-2-methoxy-phenoxy)-benzenesulfonyl]-methyl-amino}-4,5,6,7-tetrahydro-indazol-1-yl)-acetic acid] | 12.9 nM
Cc1nnc(-c2cccc(S(=O)(=O)NC3CCCc4c3cnn4CC(=O)O)c2)o1 (stereo not shown) [Example 1-4a, {4-[3-(5-Methyl-[1,3,4]oxadiazol-2-yl)-benzenesulfonylamino]-4,5,6,7-tetrahydro-indazol-1-yl}-acetic acid] | 244 nM
CN([C@@H]1CCCc2c1cnn2CC(=O)O)S(=O)(=O)c1ccc(Oc2ccc(C#N)cc2)c(Cl)c1 [Example 9-34a, ((R)-4-{[3-Chloro-4-(4-cyano-phenoxy)-benzenesulfonyl]-methyl-amino}-4,5,6,7-tetrahydro-indazol-1-yl)-acetic acid] | 4.6 nM
Cc1ccc(Oc2ncc(S(=O)(=O)NC3CCCc4c3cnn4CC(=O)O)cc2Br)cc1 (stereo not shown) [Example 2-6a, [4-(5-Bromo-6-p-tolyloxy-pyridine-3-sulfonylamino)-4,5,6,7-tetrahydro-indazol-1-yl]-acetic acid] | 26.4 nM
O=C(O)Cn1ncc2c1CCCC2NS(=O)(=O)c1ccc(-c2ccc(F)c(Cl)c2)cc1 (stereo not shown) [Example 10-15a, [4-(3′-Chloro-4′-fluoro-biphenyl-4-sulfonylamino)-4,5,6,7-tetrahydro-indazol-1-yl]-acetic acid] | 466 nM
O=C(O)CCn1ncc2c1CCC[C@H]2NS(=O)(=O)c1ccc(-c2cccc(C(F)(F)F)c2)cc1 [Example 10-31a, 3-[(R)-4-(3′-Trifluoromethyl-biphenyl-4-sulfonylamino)-4,5,6,7-tetrahydro-indazol-1-yl]-propionic acid] | 5.6 nM
N#Cc1cccc(-c2ccc(S(=O)(=O)NC3CCCc4c3cnn4CC(=O)O)cc2)c1 (stereo not shown) [Example 10-11a, [4-(3′-Cyano-biphenyl-4-sulfonylamino)-4,5,6,7-tetrahydro-indazol-1-yl]-acetic acid] | 321 nM
O=C(O)Cn1ncc2c1CCC[C@H]2NS(=O)(=O)c1ccc(Oc2ccccc2Cl)cc1Cl [Example 5-5a, {(R)-4-[2-Chloro-4-(2-chloro-phenoxy)-benzenesulfonylamino]-4,5,6,7-tetrahydro-indazol-1-yl}-acetic acid] | 6.9 nM
CN([C@@H]1CCCc2c1cnn2CC(=O)O)S(=O)(=O)c1ccc(Oc2ccc(Cl)cc2)c(C(F)(F)F)c1 [Example 9-5a, ((R)-4-{[4-(4-Chloro-phenoxy)-3-trifluoromethyl-benzenesulfonyl]-methyl-amino}-4,5,6,7-tetrahydro-indazol-1-yl)-acetic acid] | 8.2 nM
